{"source": "patent US10221162B2", "about": "“Triazole agonists of the APJ receptor” (priority 2015, dated 2019)", "key": {"[1]": {"system": "naive Sprague Dawley rat hearts", "test": "Langendorff isolated perfused rat heart (ex vivo contractility and relaxation)", "details": "Langendorff apparatus, as a function of concentration"}, "heart failure rat model": {"system": "heart failure rat model", "test": "In vivo cardiac contractility in heart failure (MI) rat model", "details": "heart failure rats, acute administration for 30 min, result in words", "experimental": "Male Lewis rats (Charles River, USA) at 2-3 months of age were used for the study. […] APJ agonists were administered dose dependently acutely for a period of 30 min.\nThe interaction between […] (ACE2) and Apelin biology is complicated. To investigate the interaction between the Apelin-APJ and ACE signalling pathways, we examined the improvement in cardiac function with APJ small molecule agonists in the presence of ACE inhibitor captopril in heart failure rats in vivo."}}}
{"molecule": "COc1cccc(OC)c1-n1c(NS(=O)(=O)[C@@H](C)[C@H](C)c2ncc(C)cn2)nnc1-c1cncc(C)c1", "note": "[Example 263.0, (2S,3R)—N-(4-(2,6-dimethoxyphenyl)-5-(5-methylpyridin-3-yl)-4H-1,2,4-triazol-3-yl)-3-(5-methylpyrimidin-2-yl)butane-2-sulfonamide]", "values": [{"measurement": "left ventricular dP/dtmax (load independent cardiac contractility)", "setting": "[1]", "value": "increases load independent cardiac contractility"}, {"measurement": "left ventricular dP/dtmin (load independent cardiac relaxation)", "setting": "[1]", "value": "increases load independent cardiac relaxation"}, {"measurement": "cardiac contractility as measured by dP/dt", "setting": "heart failure rat model", "value": "increase in cardiac contractility"}]}
{"molecule": "COc1cccc(OC)c1-n1c(NS(=O)(=O)[C@@H](C)[C@H](O)c2ncc(C)cn2)nnc1-c1cccc(C)n1", "note": "[Example 99.0, (1R,2S)-N-(4-(2,6-dimethoxyphenyl)-5-(6-methylpyridin-2-yl)-4H-1,2,4-triazol-3-yl)-1-hydroxy-1-(5-methylpyrimidin-2-yl)propane-2-sulfonamide]", "values": [{"measurement": "left ventricular dP/dtmax (load independent cardiac contractility)", "setting": "[1]", "value": "increases load independent cardiac contractility"}, {"measurement": "left ventricular dP/dtmin (load independent cardiac relaxation)", "setting": "[1]", "value": "increases load independent cardiac relaxation"}, {"measurement": "cardiac contractility as measured by dP/dt", "setting": "heart failure rat model", "value": "increase in cardiac contractility"}]}
